Experimental data taken from patent US4761403A, “Lipoxygenase inhibiting compounds” (Abbott Laboratories, priority 1986, dated 1988).

Legend:
Type in all cases: biochemical
15-lipoxygenase = biological target: T1, 15-lipoxygenase (Glycine max, UniProt P08170); assay: 15-lipoxygenase inhibition, enzyme obtained from soybean; settings: read-out: Percent Inhibition, 15-lipoxygenase
T1 construct: 15-lipoxygenase obtained from soybean; from tissue; host or cells: soybean
T1 sequence (P08170 1-839): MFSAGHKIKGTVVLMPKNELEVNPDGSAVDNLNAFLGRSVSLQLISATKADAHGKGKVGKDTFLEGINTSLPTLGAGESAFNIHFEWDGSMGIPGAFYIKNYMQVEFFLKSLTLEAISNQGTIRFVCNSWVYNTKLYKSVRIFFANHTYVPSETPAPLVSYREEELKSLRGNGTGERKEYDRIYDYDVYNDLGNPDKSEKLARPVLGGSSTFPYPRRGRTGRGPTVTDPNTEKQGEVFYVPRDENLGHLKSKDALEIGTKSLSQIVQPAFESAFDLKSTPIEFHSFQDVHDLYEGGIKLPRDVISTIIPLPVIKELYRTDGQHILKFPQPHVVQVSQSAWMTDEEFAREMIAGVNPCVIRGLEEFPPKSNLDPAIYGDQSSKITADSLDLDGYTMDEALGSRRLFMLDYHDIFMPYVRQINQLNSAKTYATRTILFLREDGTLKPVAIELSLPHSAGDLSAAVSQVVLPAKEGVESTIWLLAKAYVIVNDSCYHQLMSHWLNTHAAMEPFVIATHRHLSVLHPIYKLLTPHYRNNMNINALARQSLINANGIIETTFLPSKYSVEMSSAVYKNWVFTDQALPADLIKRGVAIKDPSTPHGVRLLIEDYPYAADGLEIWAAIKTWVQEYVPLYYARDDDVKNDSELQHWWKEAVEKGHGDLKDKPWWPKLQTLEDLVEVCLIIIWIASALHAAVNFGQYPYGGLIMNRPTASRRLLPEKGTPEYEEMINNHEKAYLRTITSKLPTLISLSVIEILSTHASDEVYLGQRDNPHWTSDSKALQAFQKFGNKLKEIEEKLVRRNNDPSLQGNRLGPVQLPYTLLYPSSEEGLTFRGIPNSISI
Description: (§1) The compounds of this invention are potent inhibitors of 5-, 12-, and 15-lipoxygenases. An assay to determine 5-lipoxygenase activity was performed in incubations containing various concentrations of the test compound and the 20,000 g supernatant from 7.5 million homogenized RBL-1 cells. Reactions were initiated by addition of radiolabeled arachidonic acid and terminated by acidification and ether extraction. Reaction products were separated from nonconverted substrate by thin layer chromatography and measured by liquid scintillation spectroscopy. Inhibition of 5-lipoxygenase activity was calculated as the 50% intercept from linear regression analysis of percentage inhibition versus log concentration plots.
(§2) Inhibitory activities of the compounds of this invention against 12- and 15-lipoxygenase can be determined in the foregoing assay in which 12-lipoxygenase obtained from human platelets, or 15-lipoxygenase obtained from soybean, is substituted for the […] containing cell supernatant fraction.

5-lipoxygenase = biological target: T2, 5-lipoxygenase (Rattus norvegicus, UniProt P12527); assay: 5-lipoxygenase inhibition, 20,000 g supernatant from homogenized RBL-1 cells, radiolabeled arachidonic acid; settings: for IC50: 5-lipoxygenase, RBL-1 supernatant, 50% intercept from linear regression of % inhibition vs log concentration
T2 construct: 20,000 g supernatant from 7.5 million homogenized RBL-1 cells; endogenous in cells; host or cells: RBL-1 cells, 20,000 g supernatant of homogenate
T2 sequence (P12527 1-673): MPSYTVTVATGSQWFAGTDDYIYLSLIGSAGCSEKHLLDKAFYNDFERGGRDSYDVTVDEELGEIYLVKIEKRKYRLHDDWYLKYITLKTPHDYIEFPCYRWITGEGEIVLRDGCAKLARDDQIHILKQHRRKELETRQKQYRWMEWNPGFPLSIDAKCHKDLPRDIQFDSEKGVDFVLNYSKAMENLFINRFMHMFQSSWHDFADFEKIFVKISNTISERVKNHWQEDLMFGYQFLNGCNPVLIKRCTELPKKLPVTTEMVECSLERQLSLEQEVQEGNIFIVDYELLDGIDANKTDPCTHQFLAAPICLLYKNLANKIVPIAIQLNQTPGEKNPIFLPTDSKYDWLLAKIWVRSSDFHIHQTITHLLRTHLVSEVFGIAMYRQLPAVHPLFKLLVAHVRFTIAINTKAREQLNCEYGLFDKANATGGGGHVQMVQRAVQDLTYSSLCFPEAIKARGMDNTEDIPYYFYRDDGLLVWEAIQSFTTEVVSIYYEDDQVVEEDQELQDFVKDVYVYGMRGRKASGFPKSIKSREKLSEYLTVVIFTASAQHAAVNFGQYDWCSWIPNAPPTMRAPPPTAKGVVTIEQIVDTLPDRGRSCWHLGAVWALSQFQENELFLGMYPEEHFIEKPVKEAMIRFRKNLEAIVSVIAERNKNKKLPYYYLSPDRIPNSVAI
Description: as §1

12-lipoxygenase = biological target: T3, 12-lipoxygenase (Homo sapiens, UniProt P18054); assay: 12-lipoxygenase inhibition, enzyme obtained from human platelets; settings: read-out: Percent Inhibition, 12-Lipoxygenase
T3 construct: 12-lipoxygenase obtained from human platelets; from tissue; host or cells: human platelets
T3 sequence (P18054 1-663): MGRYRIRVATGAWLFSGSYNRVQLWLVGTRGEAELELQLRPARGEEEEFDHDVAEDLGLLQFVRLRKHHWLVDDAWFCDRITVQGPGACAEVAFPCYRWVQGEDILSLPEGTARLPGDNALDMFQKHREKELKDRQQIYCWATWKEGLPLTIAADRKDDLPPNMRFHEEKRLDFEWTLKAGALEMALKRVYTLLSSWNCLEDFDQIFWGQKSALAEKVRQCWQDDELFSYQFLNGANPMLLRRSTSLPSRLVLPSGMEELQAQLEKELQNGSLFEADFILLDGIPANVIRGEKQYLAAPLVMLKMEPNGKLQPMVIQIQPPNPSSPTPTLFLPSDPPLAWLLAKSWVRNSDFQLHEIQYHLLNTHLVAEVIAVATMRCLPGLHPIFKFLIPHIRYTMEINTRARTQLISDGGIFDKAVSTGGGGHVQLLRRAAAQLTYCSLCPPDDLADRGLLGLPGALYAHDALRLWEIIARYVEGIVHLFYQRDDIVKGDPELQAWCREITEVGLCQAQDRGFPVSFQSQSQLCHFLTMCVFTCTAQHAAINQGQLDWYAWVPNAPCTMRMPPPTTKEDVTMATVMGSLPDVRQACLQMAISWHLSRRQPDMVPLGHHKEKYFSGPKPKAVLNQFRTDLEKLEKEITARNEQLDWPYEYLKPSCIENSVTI
Description: as §1, §2

| SMILES | inhibition at 10 µM (15-lipoxygenase) [%] | inhibition at 100 µM (15-lipoxygenase) [%] | IC50 (5-lipoxygenase) [µM] | inhibition at 10 µM (12-lipoxygenase) [%] | inhibition at 100 µM (12-lipoxygenase) [%] | inhibition at 100 µM (5-lipoxygenase; @ 100 uM, read-out: percentage inhibition of 5-lipoxygenase) [%] | inhibition at 30 µM (5-lipoxygenase; @ 30 uM, read-out: percentage inhibition of 5-lipoxygenase) [%] |
| --- | --- | --- | --- | --- | --- | --- | --- |
| O=c1ccc2ccccc2n1O [Example 1, 1-hydroxyquinol-2-(1H)-one] | 59 | 95 | 5.3 | 93 | 98 | – | – |
| COC(=O)c1cc2ccccc2n(O)c1=O [Example 2, 3-Carbomethoxy-1-hydroxyquinol-2(1H)-one] | 5 | 14 | 24 | 66 | 94 | – | – |
| O=c1c(Br)cc2ccccc2n1O [Example 3, 3-Bromo-1-hydroxyquinol-2-(1H)-one] | – | – | 4.2 | – | – | – | – |
| Cc1cc(=O)n(O)c2ccccc12 [Example 4, 4-Methyl-1-hydroxyquinol-2(1H)-one] | – | – | 1.4 | – | – | – | – |
| O=c1ccc2c([N+](=O)[O-])cccc2n1O [Example 6, 5-Nitro-1-hydroxyquinol-2(1H)-one] | 27 | 98 | 3.7 | 83 | 98 | – | – |
| Cc1ccc2c(ccc(=O)n2O)c1[N+](=O)[O-] [Example 7, 6-Methyl-5-nitro-1-hydroxyquinol-2(1H)-one] | – | – | 2 | – | – | – | – |
| O=c1ccc2cc(Cl)ccc2n1O [Example 8, 6-Chloro-1-hydroxyquinol-2(1H)-one] | 95 | 100 | 0.87 | 95 | 97 | – | – |
| O=c1ccc2cc([N+](=O)[O-])ccc2n1O [Example 11, 6-Nitro-1-hydroxyquinol-2(1H)-one] | 2 | 32 | 14 | 67 | 90 | – | – |
| O=c1ccc2cc(-c3ccccc3)ccc2n1O [Example 12, 6-Phenyl-1-hydroxyquinol-2(1H)-one] | 97 | 100 | 0.34 | 97 | 98 | – | – |
| O=c1ccc2c3ccccc3ccc2n1O [Example 14, 5,6-Benzo-1-hydroxyquinol-2(1H)-one] | – | – | 0.84 | – | – | – | – |
| O=c1c2ccccc2c2ccccc2n1O [Example 15, 3,4-Benzo-1-hydroxyquinol-2(1H)-one] | 13 | 60 | 2.5 | 96 | 98 | – | – |
| CC(C)c1cc2ccccc2n(O)c1=O [Example 16, 3-Isopropyl-1-hydroxy-quinol-2(1H)--one] | 40 | 93 | – | 93 | 98 | – | – |
| O=c1c2ccccc2cc(O)n1O [Example 28, 2,3-Dihydroxyquinol-1(2H)-one] | – | – | – | – | – | 54 | – |
| O=c1c2ccccc2c(Br)cn1O [Example 29, 4-Bromo-2-hydroxyquinol-1(2H)-one] | 43 | 94 | 2.6 | 89 | 96 | – | – |
| O=c1c2ccccc2c([N+](=O)[O-])cn1O [Example 30, 4-Nitro-2-hydroxyquinol-1(2H)-one] | 10 | 12 | – | 54 | 83 | – | 32 |
| O=c1c2ccccc2c(-c2ccccc2)cn1O [Example 31, 4-Phenyl-2-hydroxyquinol-1(2H)-one] | 14 | 50 | 0.45 | 95 | 99 | – | – |
| O=c1c2ccccc2c(-c2ccccc2)c(-c2ccccc2)n1O [Example 35] | – | – | 1.5 | – | – | – | – |

Further lines, results first:

| inhibition at 10 µM (15-lipoxygenase) [%] | inhibition at 100 µM (15-lipoxygenase) [%] | IC50 (5-lipoxygenase) [µM] | inhibition at 10 µM (12-lipoxygenase) [%] | inhibition at 100 µM (12-lipoxygenase) [%] | inhibition at 100 µM (5-lipoxygenase; @ 100 uM, read-out: percentage inhibition of 5-lipoxygenase) [%] | inhibition at 30 µM (5-lipoxygenase; @ 30 uM, read-out: percentage inhibition of 5-lipoxygenase) [%] | SMILES |
| --- | --- | --- | --- | --- | --- | --- | --- |
| – | – | 1.6 | – | – | – | – | COc1ccc2c(c1)c(Cl)cc(=O)n2O [Example 5, 4-Chloro-6-methoxy-1-hydroxyquinol-2(1H)-one] |
| – | – | 1.1 | – | – | – | – | Cc1ccc2c(ccc(=O)n2O)c1 [Example 9, 6-Methyl-1-hydroxyquinol-2-(1H)-one] |
| 62 | 94 | 1.5 | 90 | 97 | – | – | COc1ccc2c(ccc(=O)n2O)c1 [Example 10, 6-Methoxy-1-hydroxyquinol-2-(1H)-one] |
| 61 | 97 | 0.98 | 94 | 97 | – | – | Cc1ccc2ccc(=O)n(O)c2c1 [Example 13, 7-Methyl-1-hydroxyquinol-2(1H)-one] |
| – | – | 6 | – | – | – | – | O=c1c2ccccc2ccn1O [Example 27, 2-hydroxyquinol-1(2H)-one] |
| – | – | 3.9 | – | – | – | – | Cc1cn(O)c(=O)c2ccccc12 [Example 32, 4-Methyl-2-hydroxy-quinol-1(2H)-one] |
| – | – | 2.4 | – | – | – | – | Cc1cccc2c(=O)n(O)ccc12 [Example 33, 5-Methyl-2-hydroxyquinol-2(1H)-one] |
| 20 | 45 | 2.5 | 90 | 98 | – | – | COc1ccc2ccn(O)c(=O)c2c1 [Example 34] |
